According to patent US11559590B2, “Granzyme B directed imaging and therapy” (The General Hospital Corporation, priority 2016, dated 2023):
Like-named read-outs stand apart in the source and are kept apart here. One block for each molecule: values may come before it. Non-standard residues stand in square brackets, D forms with d. Residues, ends and D or L forms follow the SMILES beside them. Primed or numbered codes have the meaning given here. No end group written: not given here. *: point of attachment. X1 = O=C(O)CN1CCN(CC(=O)O)CC(Cc2ccc(NC(=S)*)cc2)N(CC(=O)O)CC1; PEG27′ = polyethylene glycol linker of 27 —(OCH2CH2)— units; Biotin = O=C1N[C@H]2[C@H](CS[C@H]2CCCCC(=O)*)N1; NOTA = O=C(O)CN1CCN(CC(=O)O)CCN(CC(=O)*)CC1; βAla = NCCC(=O)O

What was measured:
[1] = Ex vivo bio-distribution at 1 h and 2 h post-injection; format: in vivo, mice; conditions: mouse, tumor, iv, 1 mCi, total radioactivity; for tissue uptake at 1 h: 1 h post-injection; for tissue uptake at 2 h: 2 h post-injection
Protocol: (§1) Following injection with ˜1 mCi of ^68Ga-NOTA-GP (see Example 1) via tail-vein mice were sacrificed at either one-hour or two-hour time-points. Mouse urine, blood, tumor, and vital organs were sampled, and radioactivity assessed on a gamma-counter.
(§2) Following imaging, mice were sacrificed and tumoral GZB expression quantified by Western blot. […] Tumoral uptake of treated tumors was measured at 1.15% ID/g at 1 h and 1.02% ID/g at 2 h in comparison to 0.70 and 0.55% ID/g in untreated control tumors, as shown in FIG. 7B.

CT26 tumors [2] = assay: as above; format: in vivo, mice; conditions: 1 h and 2 h post-injection
Protocol: as §1, §2

CT26 tumors [3] = assay: Ex vivo tumor to blood ratio by gamma counter in CT26 tumor bearing mice; conditions: day 14, 1 h post-injection
Protocol: After confirming the ^68Ga-NOTA-GP bound to purified granzyme B and specifically accumulated in target cells, the in vivo tumor accumulation was investigated in CT26 tumor bearing mice using the same model used to generate the Western blot data from Example 2 (see FIG. 1). On day 14 post-inoculation, mice were injected with […] of ^68Ga-NOTA-GP and mice were sacrificed at 1 h following injection. Tumors and blood were collected from 7 mice that were treated with combination therapy (ant-PD-1 and CTLA-4). The tumors were grouped based on size as either responders (mass<[…]) or non-responders (mass≥[…]) The amount of radioactive ^68Ga-NOTA-GP in both the tumor and blood were quantified using a gamma counter and the adjusted based on mass and the ratio of injected dose per gram of tumor to blood (TBR) was plotted for tumors in each group.

CT26 cells = assay: Binding of ^68Ga-NOTA-GP to CT26 cells with or without pre-incubation with granzyme B; format: cell-based; conditions: 100 μCi/mL, pre-incubated with granzyme B (60 nM) or vehicle, 30 min
Protocol: CT26 cells were plated in 96 well plates and grown to 70% confluency. ^68Ga-NOTA-GP was diluted to 100 μCi/mL in 1% BSA plus RPMI buffer and either pre-incubated with granzyme B (60 nM) or vehicle prior to addition to wells. The peptide was incubated with cells for 30 min prior to washing and elution with 2M NaOH.

granzyme B [4] = biological target: T1, granzyme B (Mus musculus, UniProt P04187); assay: Response prediction using granzyme B PET imaging across CT26 and MC38 models; format: in vivo, mice; set-up: from tissue; host or cells: CT26 (BALB/C) and MC38 syngeneic tumours in living mice; granzyme B from infiltrating host lymphocytes; conditions: CT26 and MC38, all therapies
T1 sequence (P04187 21-247): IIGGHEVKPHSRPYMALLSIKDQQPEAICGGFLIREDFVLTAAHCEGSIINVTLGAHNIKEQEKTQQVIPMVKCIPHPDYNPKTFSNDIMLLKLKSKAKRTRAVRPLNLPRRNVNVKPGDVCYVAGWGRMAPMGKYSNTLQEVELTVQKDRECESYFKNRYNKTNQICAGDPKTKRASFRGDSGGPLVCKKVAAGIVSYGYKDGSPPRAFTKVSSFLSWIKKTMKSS
Text: As a measure of the accuracy of granzyme B PET (i.e., GZP PET) imaging-based response prediction across multiple tumor models and therapies described in Examples 9-11, classifications of uptake using TBR thresholds of 1.27 for CT26 tumors and 1.45 for MC38 tumors were utilized. […] This reflects an overall sensitivity and specificity of 93% and 89% respectively for the ability of ^68Ga-GZP PET to predict immunotherapy response.

granzyme B [5] = biological target: T1, granzyme B; assay: Binding of ^68Ga-NOTA-GP to purified granzyme B adsorbed to plates vs BSA; set-up: purchased R&D systems; conditions: 1 h binding, bound tracer counted by gamma counter, 6 replicates
Protocol: Granzyme B was adsorbed to plates and the plates were blocked with non-fat milk. The ^68Ga-NOTA-GP was permitted to bind for 1 h, the wells washed, and bound ^68Ga-NOTA-GP recovered by incubation with 2N NaOH and counted by gamma counter. […] The bars in FIG. 4 represent the mean of 6 replicates±SD.

granzyme B [6] = biological target: T1, granzyme B; format: in vivo, mice; set-up: from tissue; host or cells: CT26 (BALB/C) and MC38 syngeneic tumours in living mice; granzyme B from infiltrating host lymphocytes
Protocol: For imaging studies, mice were treated with intraperitoneal injection of either vehicle, 200 μg anti-PD-1 murine therapeutic antibody (αPD1), or both 200 μg αPD1 and 100 μg anti-CTLA-4 murine therapeutic antibody (αCTLA-4) on days 3, 6, and 9 following CT-26 tumor inoculation. 1×10^6 BP cells were diluted 1:1 with Matrigel and injected in the right shoulder of female C57BL/6 mice. Once tumors had reached 3-5 mm in diameter, mice were treated with daily oral gavage of vehicle or dabrafenib prepared in aqueous suspension with 0.5% hydroxypropylmethyl cellulose (HPMC) and 0.2% Tween. One day following initiation of BRAF inhibition, mice were additionally randomized to intraperitoneal injection with 200 μg αPD1 as specified. Mice were sacrificed on specified day either for Western blot and immunohistochemistry alone, or following imaging for correlative analysis. Mice were imaged on a GE Triumph PET/CT. Following CT acquisition, PET images were obtained for 15 min in 2 bed positions. Images were constructed using 3D-OSEM (4 iterations, 16 subsets) and corrected for scatter and randoms. The mean standard uptake value (SUVmean) for each tumor was calculated in a 3D region of interest auto-drawn around the tumor using a 30% isocontour threshold. Region of interests were also calculated for left ventricle, liver lung, muscle, and kidney. Images were post-processed using VivoQuant (InviCRO, Boston, Mass.). On day 14 post-inoculation, mice were injected with ˜37 MBq of purified ^68Ga-NOTA-GP intravenously and imaged at 1 h post-injection. […] The mean TBR of treated mice was calculated at 1.69±0.26, whereas the mean TBR of untreated mice was 0.93±0.11, a significant increase (83%, P<0.05) from untreated to treated mice, as shown in FIG. 11. ^68Ga-NOTA-GP uptake was observed across both treated and untreated tumors.

human granzyme B [7] = biological target: T2, human granzyme B (Homo sapiens, UniProt P10144); assay: Immunohistochemistry and immunofluorescence of human melanoma specimens with hGZP; format: binding; conditions: treated responder melanoma samples, IHC and immunofluorescence
T2 construct: from tissue; host or cells: formalin-fixed paraffin-embedded human melanoma biopsy sections
Protocol: Immunohistochemistry was performed on formalin-fixed paraffin-embedded sections following standard antigen retrieval in citrate buffer. Granzyme B expression was detected with either an anti-Granzyme B antibody (ab5049, Abcam) or a biotinylated and humanized version of GZP (hGZP, see Example 1A). Bound antibody was detected with either HRP-conjugated goat anti-rabbit antibody and reacted with DAB substrate for IHC staining or AlexaFluor 488 goat anti-rabbit or AlexaFluor 594 goat anti-rabbit antibodies (Life Technologies) for immunofluorescent visualization. Bound peptide was detected with either HRP-conjugated streptavidin (Abcam) followed by reaction with DAB substrate or Oregon green conjugated neutravidin (Life Technologies). […] Fluorescence quantification was performed using ImageJ software (National Institutes of Health, Bethesda, Md.).
(§3) A cohort of 9 human melanoma biopsy samples obtained from patients treated with anti-PD-1 checkpoint inhibitors (n=6 nivolumab and n=3 pembrolizumab), which were retrospectively correlated with response based on modified RECIST criteria. […] To quantify the degree and magnitude of difference between treated responders and nonresponders, quantitative fluorescent microscopy was performed. […]

tumor = conditions: mouse, in vivo
Text: Both peptides were designed to test the effects of additional groups on the pharmacokinetics and tumor to background ratios in mice.

[8] = biological target: Granzyme B (purified, R&D Systems); assay: in vitro granzyme B enzyme activity inhibition (cleavage of BOC-Ala-Ala-Asp-SBZL, absorbance at 405 nm)
human granzyme B [9] = biological target: T3, human granzyme B (human, UniProt P10144 21-247); assay: immunohistochemistry and immunofluorescence on human melanoma sections, compared with anti-granzyme B antibody
T3 construct: Endogenous protein in tissue sections, not purified; also called granzyme B in human melanoma tissue
Protocol: Immunohistochemistry was performed on formalin-fixed paraffin-embedded sections following standard antigen retrieval in citrate buffer. Granzyme B expression was detected with either an anti-Granzyme B antibody (ab5049, Abcam) or a biotinylated and humanized version of GZP (hGZP, see Example 1A). Bound antibody was detected with either HRP-conjugated goat anti-rabbit antibody and reacted with DAB substrate for IHC staining or AlexaFluor 488 goat anti-rabbit or AlexaFluor 594 goat anti-rabbit antibodies (Life Technologies) for immunofluorescent visualization.
Bound peptide was detected with either HRP-conjugated streptavidin (Abcam) followed by reaction with DAB substrate or Oregon green conjugated neutravidin (Life Technologies). […] Fluorescence quantification was performed using ImageJ software (National Institutes of Health, Bethesda, Md.).
as §3

T2 sequence (P10144 21-247): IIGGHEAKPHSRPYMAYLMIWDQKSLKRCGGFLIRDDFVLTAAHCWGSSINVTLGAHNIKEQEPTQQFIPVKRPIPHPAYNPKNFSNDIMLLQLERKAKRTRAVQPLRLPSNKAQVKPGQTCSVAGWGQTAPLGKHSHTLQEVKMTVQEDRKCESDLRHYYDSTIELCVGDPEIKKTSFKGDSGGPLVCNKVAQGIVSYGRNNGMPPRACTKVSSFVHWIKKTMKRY
T3 sequence (P10144 21-247 limits assumed): as the sequence (P10144 21-247) above

- tissue uptake at 1 h ([1]; treated tumors, read-out: tumoral uptake, treated tumors, 1 h): 1.15 %ID/g
- tissue uptake at 2 h ([1]; treated tumors, read-out: tumoral uptake, treated tumors, 2 h): 1.02 %ID/g
- tissue uptake at 1 h ([1]; untreated control tumors, read-out: tumoral uptake, untreated control tumors, 1 h): 0.7 %ID/g
- tissue uptake at 2 h ([1]; untreated control tumors, read-out: tumoral uptake, untreated control tumors, 2 h): 0.55 %ID/g
- clearance (CT26 tumors [2]): rapid renal clearance
- tumor to blood ratio (TBR), injected dose per gram, responders (CT26 tumors [3]; combination therapy (anti-PD-1 and CTLA-4) treated mice, responders (mass<0.8 mg)): 6.06-13.74
- tumor to blood ratio (TBR), injected dose per gram, non-responders (CT26 tumors [3]; combination therapy treated mice, non-responders (mass≥0.8 mg)): 0.95-2.48
- overall sensitivity to predict immunotherapy response (granzyme B [4]; 25 of 27 responding mice high-uptake): 93%
- overall specificity to predict immunotherapy response (granzyme B [4]; 34 of 38 non-responding mice low-uptake): 89%
- increase of mean TBR from untreated to treated mice (granzyme B [6]; mouse, in vivo): 83%
- mean TBR (tumor to left ventricle) by PET, treated mice (granzyme B [6]; mouse, in vivo): 1.69±0.26
- mean TBR (tumor to left ventricle) by PET, untreated mice (granzyme B [6]; mouse, in vivo): 0.93±0.11
Molecule: CCC(C)C(NC(=O)CNC(=O)CNC(=O)CNC(=S)Nc1ccc(CC2CN(CC(=O)O)CCN(CC(=O)O)CCN2CC(=O)O)cc1)C(=O)NC(CCC(=O)O)C(=O)NC(Cc1ccccc1)C(=O)NC(C=O)CC(=O)O (stereo not drawn) [^68Ga-NOTA-GP, metal not drawn] (X1-GGGIEFD-aldehyde; configuration not given here)
- binding/uptake in CT26 cells (CT26 cells): binds granzyme B and is taken up specifically by cancer cells
- binding to granzyme B compared to control protein (BSA) (granzyme B [5]): significantly (P<0.05) higher binding to granzyme B than to the control protein (BSA)
- correlation of TBR with tumoral GZB expression (Western blot) (granzyme B [6]; P<0.001): significant correlation between uptake and GZB expression

Molecule: {Biotin-βAla}-GGGIEPD-aldehyde [hGZP]
- binding to granzyme B in human tissue compared with anti-granzyme B antibody (human granzyme B [7]): highly specific binding of hGZP to human granzyme B

Molecule: NOTA-beta A-G-G-G-T-E-A-A-A-A-S-S-C-F-I-E-F-D-CHO ({NOTA}-[βAla]GGGTEAAAASSCFIEFD-aldehyde; SMILES CC[C@H](C)[C@H](NC(=O)[C@H](Cc1ccccc1)NC(=O)[C@H](CS)NC(=O)[C@H](CO)NC(=O)[C@H](CO)NC(=O)[C@H](C)NC(=O)[C@H](C)NC(=O)[C@H](C)NC(=O)[C@H](C)NC(=O)[C@H](CCC(=O)O)NC(=O)[C@@H](NC(=O)CNC(=O)CNC(=O)CNC(=O)CCNC(=O)CN1CCN(CC(=O)O)CCN(CC(=O)O)CC1)[C@@H](C)O)C(=O)N[C@@H](CCC(=O)O)C(=O)N[C@@H](Cc1ccccc1)C(=O)N[C@H](C=O)CC(=O)O) [GZPSERP]
- aggregation and liver uptake (tumor): significant aggregation and high liver uptake
- tumor to background ratios (tumor): much lower tumor to background ratios

Molecule: NOTA-beta A-PEG27-G-G-G-I-E-F-D ({NOTA-βAla-PEG27′}-GGGIEFD) [GZPPEG]
- tumor uptake kinetics (tumor): almost identical tumor uptake kinetics to NOTA-GP

- Ki [8]: 47 nM
Molecule: {NOTA}-[βAla]GGIEFD-aldehyde (also: NOTA complexed with nonradioactive gallium) [NOTA-beta-Ala-Gly-Gly-Ile-Glu-Phe-Asp-CHO (nonradioactive gallium-labeled)]

- binding result (human granzyme B [9]): binds
B1: Biotin-beta-Ala-Gly-Gly-Gly-Ile-Glu-Pro-Asp-CHO (peptide)
peptide: Biotin-[βAla]GGGIEPD-aldehyde
SMILES: CC[C@H](C)[C@H](NC(=O)CNC(=O)CNC(=O)CNC(=O)CCNC(=O)CCCC[C@@H]1SC[C@@H]2NC(=O)N[C@@H]21)C(=O)N[C@@H](CCC(=O)O)C(=O)N1CCC[C@H]1C(=O)N[C@H](C=O)CC(=O)O
notes: also called hGZP; biotinylated human granzyme B peptide
